Reference: US20050256132A1, “Use of ER selective NF-kB inhibitors for the treatment of sepsis” (priority 2003, published 2005)
Values joined by “and” are separate entries in the source; they are usually repeats but may differ in a detail not shown here. Equal values may be shown once. “Also recorded” adds a separate entry of the source.

Tests used:
[1] = tested on: Listeria monocytogenes; experiment: Murine Listeria model, cytokine response analysis; type: in vivo, BALB/c mice; details: 10^5 cells/animal iv, 24 hours after challenge, vs control
Description: Corn oil and Tween-stabilized vehicle was used as the control. All other reagents used in the experiments were purchased commercially from Sigma (St. Louis, Mo.) except for the cytokine assays which were purchased from Biosource (Camarillo, Calif.). The cytokines were measured by enzyme-linked immunoassay according to the manufacturer's instructions. The limits of detection of each assay are as follows: tumor necrosis factor α—3 pg/ml, interleukin-6—3 pg/ml, interferon gamma—1 pg/ml, monocyte chemo attractant protein—9 pg/ml. Endotoxin values were measured using a quantitative turbidometric assay (LAL5000) (Associates of Cape Cod, Woods Hole, Mass.).
The listeria model of systemic infection in mice was performed as previously described (Opal S. M., et al., Shock 15(4):285-290, 2001). Compound 67 was administered orally via an orogastric tube to BALB/c mice in an increasing dose schedule of from 1.5 mg/kg to 50 mg/kg. The BALB/c mice were purchased from Charles River Laboratories (Wilmington, Mass.). […]
For the cytokine response analysis, a standard dose of 10^5 cells/animal was administered intravenously, and cytokine measures were performed 24 hours after the intravenous challenge. […] The LD50 was calculated by the method of Reed and Meuch (Opal S. M., et al., J Infect Dis 187:70-76, 2003.).

[2] = tested on: ERβ; experiment: Reporter activity in HAECT-1 cells expressing ERβ; type: cell-based, human; details: FIG. 1C
Description: (A) The effect of compound 67 on NF-κB mediated luciferase reporter activity in HAECT-1 cells expressing ERα. […] (C) The effect of compound 67 on the human IL-6 promoter luciferase reporter activity in HAECT-1 cells expressing either ERα (squares) or ERβ (diamonds). (D) The remaining lysate from (A) was used to determine CK activity.
HAECT-1 cells (Chadwick C C, et al., Proc Natl Acad Sciences, 2005, 102(7): 2543-2548) were cultured in EGM (GIBCO, Rockville, Md.) containing 10% FBS, 1% GlutaMAX and 0.1% Antimycotic-Antibiotic in Falcon T-175 culture flasks at 34° C. in 5% CO2 and infected for four hours with Ad5-wt-ER virus. After overnight recovery, the cells were infected for 2 hours with the Ad5-3x(NFκB).Luc or Ad5-IL6.Luc virus. Compound 67 and 2 ng/ml IL-1 were added to the cells for 15-20 h and the cell lysate was assayed for luciferase activity and evaluated for CK expression (Stanbio Laboratories, Texas). The values are reported as mean±SEM with n=4 from at least 3 independent experiments.

[3] = Cecal ligation and puncture model in mice; type: in vivo, BALBc mice
Description: The cecal ligation puncture (“CLP”) procedure was derived from a modification of standard methods previously described (Opal S M, et al., Shock 15(4):285-290, 2001). Female, non-pregnant, specific pathogen-free, Albino BALBc mice (20-25 gm) were used in the experiment. […] Animals were allowed to eat and drink sterile water on an ad libitum basis until 12 h before surgery when food was withheld until after the surgical procedure.
Anesthetized animals (methoxyflurane, Mallinckodt Veterninary Inc., Mundeline, Ill.) had the abdominal skin shaved and a midline, abdominal incision was made. The cecum was exteriorized and distended using intraluminal contents from the colon. The cecum was then ligated below the ileocecal valve and punctured twice using a 23-gauge sterile needle. The cecum was returned to the peritoneal cavity and the transversalis fascia was closed along with the skin incision. The skin incision was covered with topical bacitracin ointment. The animals were given a single […] dose of trovafloxacin (20 mg/kg IM) immediately post-operatively and a 1-mL subcutaneous dose of PBS was given as fluid resuscitation. […] All animals underwent necropsy examination for histological evidence of organ injury, pathology scoring of intestinal mucosa, and quantitative bacteriology.
Differences in survival time between groups were analyzed by Kaplan-Meier survival plots and log-rank testing. Other parameters were measured using a Mann-Whitney U-Test for 2 groups or the Kruskal-Wallis one way analysis of variance for 3 or more groups. A p value of <0.05 was considered significant. All data is presented as mean and standard deviation.

[4] = tested on: ER/NF-κB; experiment: ER/NF-κB luciferase reporter in Ad5-wt-ERα infected HAECT-1 cells (Table 1); type: cell-based, human; details: relative to the maximal inhibition observed with E2
Description: T-175 flasks of 100% confluent HAECT-1 cells (immortalized human aortic endothelial cells) were washed with 8 mL of HBSS (HEPES buffered saline solution) and infected for four hours with 6 mL of a 1:10 dilution of Ad5-wt-hERα virus (an adenovirus transfection vector that mediates CMV promoter driven expression of human ERα) in phenol red free Endothelial Cell Basal medium (Clonetics, San Diego Calif., Catalog # CC-3129) containing 0.25% bovine serum albumin (EBM-BSA). After four hours, cells were washed with EBM-BSA and incubated overnight in the same medium. Following overnight incubation, cells were washed with EBM-BSA and infected for 2 hours with 6 mL of a 1:10 dilution of Ad5-3x(NF-κB).Luc virus (Adenovirus luciferase expression vector driven by 3 repeats of the MHC NF-κb site 5′ to the thymidine kinase promoter) in EBM-BSA. […]
ERα infected HAECT-1 cells or control cells were thawed, diluted 42× in warm EBM-BSA, plated into 96-well plates at 0.1 mL/well and incubated for 4 hours at 34° C. […] Luciferase was determined on a Wallac Victor Luminometer (Gaithersburg, Md.) using 10 μL of lysate and mixing with 100 μL of Promega Luciferase Assay reagent. Creatine kinase was determined from the rate of increase in A340 following addition of 100 μL of CK assay reagent (Sigma, cat. No 47-10) to the remainder of the cell lysate. […]

**Q.** For COc1ccccc1[C@H](c1cccc2ccccc12)[C@@](C)(C#N)C(=O)N1CCC(c2cccc(C(F)(F)F)c2)CC1 [Example 67, (S,S)-3-(2-methoxyphenyl)-2-methyl-3-(1-naphthyl)-2-({4-[3-(trifluoromethyl)phenyl]piperidin-1-yl}carbonyl)propanenitrile], which “cytokine levels (TNF, IL-6, MCP-1, interferon gamma) in bacteremic animals” value [1] is on record?
**A.** unchanged

**Q.** What about the “inhibition of NF-κB transcriptional activity in the presence of ERβ” value [2] of the same molecule?
**A.** little inhibition

**Q.** What about the “survival vs vehicle control (Kaplan-Meier)” value ([3]; 50 mg/kg at 0, 24 and 48 hours after CLP, 7 days, FIG. 5) of the same molecule?
**A.** significant survival advantage; also recorded: significantly greater than control

**Q.** What about the “histopathologic scores of small bowel intestinal mucosa” value ([3]; 50 mg/kg, p<0.05 vs vehicle control) of the same molecule?
**A.** significant preservation of mucosal integrity

**Q.** And the “systemic cytokine release and endotoxin levels” value ([3]; 50 mg/kg, vs vehicle control, p=ns)?
**A.** did not differ

**Q.** What about the “ER/NFκB Efficacy” value [4] of the same molecule?
**A.** 100% and 86% and 90% and 92%
